We go through 9 compounds from patent US9428552B2, “Stem cell mobilization and tissue repair and regeneration” (Wellstat Therapeutics Corporation, priority 2012, dated 2016).

“Also recorded” adds a separate entry of the source. Ends that are not written are not given here. Peptide text beside a SMILES is read from it.

Series [1] deals with EML-Cl cells. Kind of series: CFU-GEMM number of EML cells after 3 hr serum and SCF deprivation. Type of series: cell-based, murine. The following applies: for rescue of CFU-GEMM: serum and SCF deprivation, 10 μM. On the procedure: Erythroid myeloid lymphoid (EML) cells are an established multipotent hematopoietic precursor cell line (EML-Cl) that can be maintained in medium including stem cell factor (SCF) and Horse serum (HS). When plated in methylcellulose with cocktail of growth factors EML cells form mixed colonies (CFUmix or CFU-GEMM) containing a mix of erythroid and myeloid cells that can be enumerated after 7 days of incubation.
Starvation of EML-Cl cell line cells of serum and SCF during 3 hr causes majority of CFUmix to develop apoptosis and die, which decreases their number growing in methylcellulose substantially.
EML cells were grown in IMDM with 10% HS and 100 ng/ml of SCF in IMDM and used for all experiments in exponential growth phase.
Cells were washed from serum and growth factor with IMDM two times, counted and placed into 12 ml polypropylene tubes 2×10^6 cells in 2 ml for 3 hr incubation at t-37° C. and 5% CO2.
Cell suspensions after the incubation were centrifuged, diluted 5 times with IMDM and counted using a hemacytometer. Cells were adjusted to 10^3 cells/mL in IMDM and cell suspension was placed into 50 mL tubes with 4.5 mL of Methylcellulose M3434 mixed well and seeded into 35-mm Petri dishes (Falcon BD351008) at 1 mL/dish. Cells were incubated at 37° C., 5% CO2.
CFU were scored using an inverted microscope after 7 days of incubation.

Series [2] in a line: Cleavage of peptide during 3 hr incubation with murine bone marrow cells (HPLC, MS). Type of series: in vitro ADME. The following applies: 100 μg/ml, 37° C., absence of serum. On the procedure:
B6D2F1 mice (HSD) were treated with 100 mg/kg testosterone propionate 24 hr before being sacrificed, femurs were removed and bone marrow cells (BMC) were flushed from bone marrow cavity. BMC—5×10^6 cells/ml was resuspended in IMDM. Cell suspension was placed into 14-ml Falcon tubes (BD). Peptide Compound A, (Think Peptides) was added to cells at 100 μg/ml concentration. The appropriate volume of IMDM was added to another control supernatant tube containing 1 ml of cells. Cells were incubated for 3 hours at 37° C. After 3 hours of incubation, tubes were centrifuged, supernatants were collected and proteins with Mw>10 KD were eliminated by Amicon filtration at 3000 rpm 25 minutes. 0.5 ml of supernatant containing <10 Kd material was collected from each sample and heat inactivated during 10 min at t-70° C. The following samples were prepared for HPLC and MS: Control supernatant (<10 Kd); Supernatant from cells incubated with Compound A (<10 Kd); Compound A (50 μL) spiked into cell culture medium; and Compound C (50 μL) spiked into cell culture medium.

The target of series [3] is human recombinant DPPIV (Homo sapiens, UniProt P27487). Kind of series: Hydrolysis of N-terminal by recombinant DPPIV. The following applies: previously shown. Type of series: in vitro ADME.
The target of series [4] is murine recombinant DPPIV (Mus musculus, UniProt P28843). The experiment in a line: Hydrolysis of N-terminal by recombinant DPPIV. The following applies: previously shown. Format: in vitro ADME.
Series [5] has as its system hindlimb ischemia. The experiment in a line: Unilateral hindlimb ischemia by femoral artery ligation. Format: in vivo. The following applies: C57/BL6 mice, day 9; peptide 250 μg/kg s.c., DFO 100 mg/kg i.m. The source says: Ligation of the femoral artery in mice is an established model of hindlimb ischemia for testing treatments that might improve revascularization and functional recovery.
A total of 50 C57/B16 8-10 week old female mice were divided into 5 treatment groups (n=10/group).
• 1. Vehicle Control • 2. DFO (intramuscular) DFO (desferrioxamine) has been reported to improve revascularization by augmenting HIF-1α activation in sites of damage, to elicit secretion of local angiogenic factors and chemotactic signals that attract circulating repair-promoting stem and progenitor cells) • 3. DFO (intramuscular)+Compound C (subcutaneous) • 4. Compound A (subcutaneous) • 5. DFO (intramuscular)+Compound A (subcutaneous)
Mice were subjected to unilateral total ligation and transection of the femoral artery under anesthesia (2% Isoflurane mixed with 100% oxygen). A unilateral incision was made over the left medial thigh of each mouse. […]
On day 0, 4, 9, and 14, the condition of left hind limbs were evaluated with Muscle Function Score and Ischemia Score. […]
Recovery of circulation and function in the hindlimb ischemia model involves angiogenesis and revascularization, a process triggered by oxygen deficits. Revascularization was evaluated on day 14 after artery ligation by counting capillaries in cross sectional histology slides prepared from gastrocnemius muscles from both legs. […]

Series [6] concerns CFU-GEMM. The experiment in a line: Effect of S1P gradient disruption (DOP) on mobilization after multiple subcutaneous injections. Type of series: in vivo. The following applies: DBA/2J mice, DOP in glucose drinking water. On the procedure:
In this experiment the inhibitor of S1P lyase activity, 4-deoxypyridoxine (DOP, Sigma-Aldrich) was administrated to mice in the drinking water in order to test if disruption of S1P gradient has an effect on mobilization induced by Compound A. Fifteen week-old DBA/2J male mice (Jackson Laboratories) were divided into 4 groups of 4 mice each. All Mice received glucose drinking water (10 g/L) throughout the duration of the study. DOP ([…]) was added to the glucose water of two groups. Mice were subcutaneously injected for four consecutive days with 500 μg/kg of Compound A or Saline. At one-hour post injections on day 4, peripheral blood from mice was harvested from the orbital plexus using capillary tubes (VWR) and collected into EDTA-containing tubes (BD). To determine mobilization of colony-forming unit cells out of the peripheral blood, mononuclear cells were plated in mouse methylcellulose complete media (R&D Systems). The cells were placed into 35-mm Petri dishes at 100,000 cells per dish with 5 dishes per group. Cells incubated for 11 days in a 37° C. and 5% CO2 humidified incubator. CFU colonies were then scored using an inverted microscope.

Series [7] concerns hematopoietic stem cells (HSC) and their hematopoietic progenitors (HPC). Kind of series: Mobilization of stem cells into peripheral blood after single subcutaneous injection (colony-forming assay). Format: in vivo. The following applies: DBA/2J mice, single 125 μg/kg dose, within one hour of administration. On the procedure:
Stimulatory doses of Compound A activate quiescent stem cells, induce them to proliferate and egress from bone marrow into peripheral blood. […]
After 1 hour, mice were anesthetized and blood was collected through the orbital sinus with heparinized capillary tubes. To enumerate HSC and HPC in peripheral blood, cells were washed, counted and plated in semi-solid Methylcellulose (Stem cell technology) at 100,000 per dish (5 dishes/group) and placed in CO2 incubator at 37° C. Colony-forming unit-granulocyte erythroid macrophage megakaryocyte (CFU-GEMM) and Colony-forming unit-granulocyte macrophage (CFU-GM) were detected under inverted microscope after 7-10 days in culture.

Series [8] deals with CFU-GEMM and CFU-GM. Kind of series: Mobilization of stem cells into peripheral blood after multiple subcutaneous injections. Type of series: in vivo, mice. The following applies: dose response. The source says: This example is based on a protocol for a 5-day course of once-daily Compound A injections into DBA male mice similar to a G-CSF. […]
[…] At 7 days post initial injection, peripheral blood from 3 mice per group was harvested from the orbital plexus using capillary tubes (VWR) and collected into EDTA-containing tubes (VWR). Blood was also harvested and pooled from 3 naïve mice to serve as a naïve control group.

Series [9] has as its system CFU-GEMM. Kind of series: Mobilization of CFU-GEMM and CFU-GM in db/db mice with high glucose level. Format: in vivo. The following applies: 5 mg/kg s.c. On the procedure: To test mobilizing effect of Compound A in db/db mice with high level of glucose the following experiment was conducted. BKS.Cg-Dock7m+/+Leprdb/J male mice (10 weeks old Jackson Laboratories, stock #000642) were subcutaneously injected with 0.9% saline (vehicle control), 5 mg/kg Compound C, or 10 mg/kg Compound A (ThinkPeptides) for 5 consecutive days. At 7 days post initial injection, peripheral blood from 3 mice per group was harvested from the orbital plexus using capillary tubes (VWR) and collected into EDTA-containing tubes (BD).

The test system of series [10] is Caspase-3. The experiment in a line: Caspase-3 fluorimetric assay in EML cell lysates after HS and SCF deprivation. Format: cell-based, murine. The following applies: for Caspase-3 proteolytic activity, Exp 1 / Caspase-3 proteolytic activity, Exp 2 / Caspase-3 proteolytic activity, Exp 3 / Caspase-3 proteolytic activity, Sum of 3 experiments: 10 μM present during starvation, starvation control 100%; for Caspase-3 activation induced by HS and SCF deprivation: EML cells, peptide present during starvation. On the procedure: To assess possible effect of Compound A and other peptides on Caspase-3 enzymatic activity during apoptosis induced by serum starvation fluorimetric assay Caspase-3 assay was performed according to the manufacturer's instructions (ApoAlert Clontech Mountain view CA).
Cell suspensions after the incubation were divided into two equal tubes (+/−Caspase inhibitor). Cells were centrifuged at 400×g for 5 min and re-suspend in chilled Cell Lysis Buffer with the following incubation on ice for 10 min., cell lysates were centrifugated in a microcentrifuge at max speed for 10 min at 4° C. and transferred into new tubes.
50 μl of 2× Reaction buffer/DTT mix and 1 μl of Caspase inhibitor added to 50 μl of cell lysate (+Inhibitor groups). 1 uL DMSO per 50 μL of 2× Reaction buffer was added to samples without inhibitor.
5 μL of the 1 mM Caspase-3 Substrate (DEVD-AFC; 50 μM final concentration) were added to each tube and incubated at t-37° C. for 1 hr in a water bath. All samples in duplicates were transferred to a 96 well plate. The plates were analyzed on a fluorescence plate reader (Spectramax Gemini.) at a 400 nm excitation and a 505 nm emission, and Caspase-3 activity was expressed relative to the medium control. Free AFC accumulation that resulted from cleavage of the asparatic-AFC bond monitored by fluorimeter and results in duplicates were recalculated according to the free AFC calibration curve.

In series [11] the test system is THP-1 cells. Kind of series: Cytokine production by THP-1 cells in response to LPS. Type of series: cell-based. The following applies: 4 hours, levels ranging from 1 μM down to 10 nM. On the procedure:
THP-1 cells activated with 0.2 μM vitamin-D3 (EMD Biosciences Inc) and cultured in cRPMI [RPMI plus 10% ΔFBS (both Lonza)] were transferred to 24-well dishes. Different concentrations of Compound A or related peptides were added (in triplicate) and the plate placed in a 37° C. incubator.
After 1 hour, crude-LPS from E. coli 0111:B4 (20 ng-100 ng/ml final conc) was added to some wells. Supernatant aliquots were taken after 4 hours and cytokine levels determined using a cytokine bead array kit (BD558277).

murine recombinant DPPIV, sequence (P28843 whole entry): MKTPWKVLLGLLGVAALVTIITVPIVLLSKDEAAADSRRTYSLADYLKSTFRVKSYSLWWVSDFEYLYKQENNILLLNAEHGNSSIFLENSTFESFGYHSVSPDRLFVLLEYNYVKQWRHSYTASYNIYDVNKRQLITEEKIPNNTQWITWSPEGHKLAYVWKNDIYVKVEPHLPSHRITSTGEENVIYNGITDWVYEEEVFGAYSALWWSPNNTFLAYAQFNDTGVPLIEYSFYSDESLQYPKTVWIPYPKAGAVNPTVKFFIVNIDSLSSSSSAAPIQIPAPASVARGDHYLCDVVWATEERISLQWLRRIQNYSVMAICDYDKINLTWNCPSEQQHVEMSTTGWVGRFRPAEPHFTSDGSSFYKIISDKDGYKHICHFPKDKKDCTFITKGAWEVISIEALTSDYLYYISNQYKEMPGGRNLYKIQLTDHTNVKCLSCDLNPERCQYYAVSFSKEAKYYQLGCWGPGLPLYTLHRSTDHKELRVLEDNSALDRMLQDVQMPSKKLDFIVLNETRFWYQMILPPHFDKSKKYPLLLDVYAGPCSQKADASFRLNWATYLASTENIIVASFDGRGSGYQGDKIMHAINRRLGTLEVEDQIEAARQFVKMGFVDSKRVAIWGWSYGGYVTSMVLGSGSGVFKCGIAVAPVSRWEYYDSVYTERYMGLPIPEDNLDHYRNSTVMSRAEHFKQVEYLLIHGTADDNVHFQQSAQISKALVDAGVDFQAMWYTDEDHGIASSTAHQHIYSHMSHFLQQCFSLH
human recombinant DPPIV, sequence (P27487 whole entry): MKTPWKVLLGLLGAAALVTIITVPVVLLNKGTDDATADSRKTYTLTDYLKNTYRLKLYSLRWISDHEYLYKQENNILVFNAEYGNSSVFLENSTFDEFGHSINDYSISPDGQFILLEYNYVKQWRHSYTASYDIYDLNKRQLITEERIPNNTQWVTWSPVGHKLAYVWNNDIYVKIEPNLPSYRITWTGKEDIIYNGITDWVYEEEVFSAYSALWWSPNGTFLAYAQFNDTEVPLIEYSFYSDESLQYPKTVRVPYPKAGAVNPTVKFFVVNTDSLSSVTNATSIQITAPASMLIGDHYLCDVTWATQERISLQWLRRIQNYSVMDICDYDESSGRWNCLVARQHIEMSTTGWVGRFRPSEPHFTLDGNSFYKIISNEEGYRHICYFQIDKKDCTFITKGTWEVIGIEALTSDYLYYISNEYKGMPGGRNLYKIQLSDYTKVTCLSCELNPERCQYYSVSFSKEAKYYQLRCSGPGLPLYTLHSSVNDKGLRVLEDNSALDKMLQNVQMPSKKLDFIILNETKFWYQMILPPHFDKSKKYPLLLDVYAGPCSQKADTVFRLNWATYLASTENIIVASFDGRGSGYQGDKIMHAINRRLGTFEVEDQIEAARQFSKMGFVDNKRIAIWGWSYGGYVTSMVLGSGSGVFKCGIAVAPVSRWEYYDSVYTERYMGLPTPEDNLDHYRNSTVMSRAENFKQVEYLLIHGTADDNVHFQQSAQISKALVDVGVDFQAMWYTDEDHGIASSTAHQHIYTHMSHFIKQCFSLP

Consider `CCCCCCCCCCCC1N[C@H](C(=O)O)CS1` (stereo partly drawn) [CAY10444], for which the “rescue of CFU-GEMM” value in [1] is on record as “rescued CFU-GEMM”.

For `CC(C)C[C@H](NC(=O)[C@H](CC(=O)O)NC(=O)[C@H](Cc1ccccc1)NC(=O)[C@H](Cc1c[nH]cn1)NC(=O)[C@@H]1CCCN1C(=O)[C@@H](N)Cc1ccccc1)C(=O)N[C@@H](CO)C(=O)N[C@@H](Cc1c[nH]cn1)C(=O)NCC(=O)N[C@@H](CO)C(=O)N[C@@H](C)C(=O)N[C@@H](CCC(N)=O)C(=O)N[C@H](C(=O)N[C@@H](CO)C(=O)N[C@@H](CC(=O)O)C(=O)N[C@@H](CCCCN)C(=O)N1CCC[C@H]1C(=O)O)C(C)C` [Compound A, Phe-Pro-His-Phe-Asp-Leu-Ser-His-Gly-Ser-Ala-Gln-Val-Ser-Asp-Lys-Pro] (H-FPHFDLSHGSAQVSDKP-OH; N-terminus and C-terminus assumed), the “cleavage after incubation with murine bone marrow cells” value in [2] is “proteolyses of the peptide was registered”. The “hydrolysis of N-terminal by human recombinant DPPIV” value in series [3] is “can be hydrolyzed”. Further, the “hydrolysis of N-terminal by murine recombinant DPPIV” value in series [4] was “can be hydrolyzed”.

As for `CCCCCCCCCCCCC/C=C/[C@@H](O)[C@@H](N)COP(=O)(O)O` [Compound S1P, Sphingosine 1-phosphate], the “rescue of CFU-GEMM” value in series [1] is “rescued CFU-GEMM”.

In the case of `CC(=O)N(O)CCCCCNC(=O)CCC(=O)N(O)CCCCCNC(=O)CCC(=O)N(O)CCCCCN` [DFO, desferrioxamine], the “Muscle Function Score” value in [5] was “maintained impairment”.

With `Cc1ncc(CO)c(C)c1O` [DOP, 4-deoxypyridoxine], in [6], the “mobilization of colony forming cells into peripheral blood” value is on record as “decreased mobilization”.

For `FC(F)(F)c1cccc(-c2noc(-c3cc(-c4ccccc4)c(C(F)(F)F)s3)n2)c1` [SEW2871], the “rescue of CFU-GEMM” value in [1] is recorded as “rescued CFU-GEMM”.

With “FPHFDLSHGSAQV [Compound C, included for comparison with the oligopeptides of this invention]”, the “increase in CFU-GEMM numbers” value in series [7] was “two-fold”. The “dose with the best effect on CFU-GEMM mobilization” value in [8] is 0.75 mg/kg. For the same compound, the “CFU-GEMM / progenitor cell mobilization into peripheral blood” value in [9] is “did not cause CFU-GEMM mobilization; also recorded: did not mobilize progenitor cells”. Besides, the “rescue of colony-forming cells (CFUmix/CFU-GEMM) during starvation” value in series [1] (3 hr HS and SCF deprivation, compared with combined HS and SCF) is recorded as “rescued colony-forming cells”. For the same compound, in series [10], the “Caspase-3 proteolytic activity, Exp 1” value turned out to be 66%; the “Caspase-3 proteolytic activity, Exp 2” value is 83%; the “Caspase-3 proteolytic activity, Exp 3” value is 53%; the “Caspase-3 proteolytic activity, Sum of 3 experiments” value is recorded as 67.3 +/− 15%. For the same compound, the “Caspase-3 activation induced by HS and SCF deprivation” value in series [10] was “prevented Caspase-3 activation”.

On to JTE-013, for which, in series [1], the “rescue of CFU-GEMM” value is “rescued CFU-GEMM”.

On to “N-acetyl-Ser-Asp-Lys-Pro (Ac-SDKP) [AcSDKP]”, for which the TNFα secretion result in series [11] was “strongly inhibited”. Further, in series [10], the “Caspase-3 proteolytic activity, Exp 1” value is recorded as 70%; the “Caspase-3 proteolytic activity, Exp 2” value turned out to be 84%; the “Caspase-3 proteolytic activity, Exp 3” value was 65%; the “Caspase-3 proteolytic activity, Sum of 3 experiments” value is given as 73 +/− 9.8%. Also, in series [10], the “Caspase-3 activation induced by HS and SCF deprivation” value is on record as “prevented Caspase-3 activation”.
